For eleven compounds, MIC results are on record in ChEMBL document CHEMBL4680273, “Teixobactin: A Paving Stone toward a New Class of Antibiotics?” (2020).

Common to all, as to type: functional
The test system of experiment [1] is Staphylococcus aureus. Kind of experiment: Antibacterial activity against methicillin- resistant Staphylococcus aureus SA86.
The test system of experiment [2] is Staphylococcus aureus. Description: Antibacterial activity against Staphylococcus aureus ATCC 29213.
In experiment [3] the test system is Staphylococcus aureus. Kind of experiment: Antibacterial activity against Staphylococcus aureus SH1000 incubated for 24 hrs by CLSI-broth microdilution method. Conditions: Staphylococcus aureus, SH1000, read-out: MIC. On the technique in general: In broth dilution the organism is exposed to a series of concentrations in liquid medium.
In the next experiment the test system is Pseudomonas aeruginosa. Kind of experiment: Antibacterial activity against Pseudomonas aeruginosa PAO1 incubated for 24 hrs in presence of colistin by Checkerboard assay.
Experiment [4] has as its system Staphylococcus aureus. Kind of experiment: Antibacterial activity against methicillin resistant Staphylococcus aureus.
Another experiment has as its system Bacillus spizizenii. Kind of experiment: Antibacterial activity against Bacillus subtilis ATCC 6633 by M07-A9 CLSI method.
For experiment [5], the system named is Staphylococcus aureus. Kind of experiment: Antibacterial activity against methicillin resistant Staphylococcus aureus USA300.
Experiment [6] relates to Bacillus subtilis. Description: Antibacterial activity against Bacillus subtilis ATCC 6051 incubated for 16 hrs by UV/Visible absorbance method.
The test system of experiment [7] is Staphylococcus epidermidis. Kind of experiment: Antibacterial activity against Staphylococcus epidermidis ATCC 14990 incubated for 16 hrs by UV/Visible absorbance method.
Experiment [8] has as its system Staphylococcus aureus. Kind of experiment: Antibacterial activity against Staphylococcus aureus ATCC 29213 by CLSI-based broth microdilution method.
Experiment [9] has as its system Staphylococcus aureus. Kind of experiment: Antibacterial activity against Staphylococcus aureus TH4112 incubated for 16 to 20 hrs by CLSI-based broth microdilution method. Conditions: time 16-20 hrs.
Experiment [10] relates to Staphylococcus aureus. Kind of experiment: Antibacterial activity against methicillin resistant Staphylococcus aureus ATCC 33591 incubated for 24 hrs.
In experiment [11] the test system is Bacillus subtilis. Description: Antibacterial activity against Bacillus subtilis ATCC 6051 incubated for 24 hrs by CLSI based broth microdilution method.
Experiment [12] relates to Staphylococcus aureus. Kind of experiment: Antibacterial activity against Staphylococcus aureus ATCC 29213 incubated for 24 hrs by CLSI-based broth microdilution method.

≈ marks a conversion by molar mass, not a printed value.

For orientation: MIC means the least concentration at which growth counts as inhibited. As to `CC[C@H](C)[C@H](NC(=O)[C@@H](Cc1ccccc1)NC)C(=O)N[C@@H](CO)C(=O)N[C@H](CCC(N)=O)C(=O)N[C@@H](C(=O)N[C@H](C(=O)N[C@@H](CO)C(=O)N[C@H]1C(=O)N[C@@H](C)C(=O)NC(CCCN)C(=O)N[C@@H]([C@@H](C)CC)C(=O)O[C@H]1C)[C@@H](C)CC)C(C)C` (some centres undefined), the MIC against Staphylococcus aureus [1] was found to be 16 µg/mL (≈ 13.5 µM); against Staphylococcus aureus [2] it was 8 µg/mL (≈ 6.73 µM).
Take `CCCCC1NC(=O)[C@H](CCCNC(=N)N)NC(=O)[C@H](C)NC(=O)[C@H](NC(=O)[C@H](CO)NC(=O)[C@@H](NC(=O)[C@H](NC(=O)[C@@H](CCC(N)=O)NC(=O)[C@H](CO)NC(=O)[C@@H](NC(=O)[C@@H](Cc2ccccc2)NC)[C@@H](C)CC)[C@@H](C)CC)[C@@H](C)CC)[C@H](C)OC1=O` (some centres undefined): the MIC is 8 µg/mL (≈ 6.43 µM) with Staphylococcus aureus [3] and 64 µg/mL in the experiment with Pseudomonas aeruginosa.
Regarding `CC[C@H](C)[C@H](NC(=O)[C@@H](Cc1ccccc1)NC)C(=O)N[C@@H](CO)C(=O)N[C@H](CCC(N)=O)C(=O)N[C@@H](C(=O)N[C@H](C(=O)N[C@@H](CO)C(=O)N[C@H]1C(=O)N[C@@H](C)C(=O)N[C@@H](Cc2ncc[nH]2)C(=O)N[C@@H]([C@@H](C)CC)C(=O)O[C@H]1C)[C@@H](C)CC)[C@@H](C)CC`, the MIC worked out at 2 µg/mL (≈ 1.63 µM) with Staphylococcus aureus [4], 8 µg/mL (≈ 6.53 µM) with Bacillus spizizenii and 16 µg/mL (≈ 13.1 µM) in the experiment on Staphylococcus aureus [5].
`CC[C@H](C)[C@H](NC(=O)[C@@H](Cc1ccccc1)NC)C(=O)N[C@@H](CO)C(=O)N[C@H](CCC(N)=O)C(=O)N[C@@H](C(=O)N[C@H](C(=O)N[C@@H](CO)C(=O)N[C@H]1C(=O)N[C@@H](C)C(=O)NC(CCCN)C(=O)N[C@@H](C(C)C)C(=O)O[C@H]1C)[C@@H](C)CC)[C@@H](C)CC` (some centres undefined): the MIC in the experiment on Staphylococcus aureus [1] and against Staphylococcus aureus [2] was 8 µg/mL (≈ 6.73 µM) in each case.
As for `CC[C@@H](C)[C@H](NC(=O)[C@H](CCC(N)=O)NC(=O)[C@@H](CO)NC(=O)[C@H](NC(=O)[C@H](Cc1ccccc1)NC)[C@H](C)CC)C(=O)N[C@@H](C(=O)N[C@H](CO)C(=O)N[C@@H]1C(=O)N[C@H](C)C(=O)N[C@H](CCCNC(=N)N)C(=O)N[C@H]([C@H](C)CC)C(=O)O[C@@H]1C)[C@H](C)CC`, the MIC (against Bacillus subtilis [6]; in experiment [7]) was 2 µg/mL (≈ 1.61 µM) throughout.
In the case of `CC[C@H](C)[C@H](NC(=O)[C@@H](Cc1ccccc1)NC)C(=O)N[C@@H](CO)C(=O)N[C@H](CCC(N)=O)C(=O)N[C@@H](C(=O)N[C@H](C(=O)N[C@@H](CO)C(=O)N[C@H]1C(=O)N[C@@H](C)C(=O)N[C@@H](CCCNC(N)=O)C(=O)N[C@@H]([C@@H](C)CC)C(=O)O[C@H]1C)[C@@H](C)CC)[C@@H](C)CC`, inhibition of growth in the experiment with Staphylococcus aureus [5] (MIC) required 16 µg/mL (≈ 12.8 µM).
In the case of `CC[C@H](C)[C@H](NC(=O)[C@H](N)Cc1ccccc1)C(=O)N[C@@H](CO)C(=O)N[C@H](CCC(N)=O)C(=O)N[C@@H](C(=O)N[C@H](C(=O)N[C@@H](CO)C(=O)N[C@H]1C(=O)N[C@@H](C)C(=O)N[C@@H](CCCNC(=N)N)C(=O)N[C@@H]([C@@H](C)CC)C(=O)O[C@H]1C)[C@@H](C)CC)[C@@H](C)CC`, in the experiment with Staphylococcus aureus [8], the MIC was determined as 2 µg/mL (≈ 1.63 µM).
In the experiment on Staphylococcus aureus [8], `CC[C@H](C)[C@H](NC(=O)[C@H](NC(=O)[C@@H](CCC(N)=O)NC(=O)[C@H](CO)NC(=O)[C@@H](NC(=O)[C@H](Cc1ccccc1)N(C)C)[C@@H](C)CC)[C@@H](C)CC)C(=O)N[C@@H](CO)C(=O)N[C@H]1C(=O)N[C@@H](C)C(=O)N[C@@H](CCCNC(=N)N)C(=O)N[C@@H]([C@@H](C)CC)C(=O)O[C@H]1C` came in with an MIC of 32 µg/mL (≈ 25.4 µM).
As to `CC[C@H](C)[C@@H]1NC(=O)[C@H](C[C@H]2CNC(=N)N2)NC(=O)[C@H](C)NC(=O)[C@H](NC(=O)[C@H](CO)NC(=O)[C@@H](NC(=O)[C@H](NC(=O)[C@@H](CCC(N)=O)NC(=O)[C@H](CO)NC(=O)[C@@H](NC(=O)[C@@H](Cc2ccccc2)NC)[C@@H](C)CC)[C@@H](C)CC)[C@@H](C)CC)CNC1=O`, the MIC with Staphylococcus aureus [9] came to 0.185 µg/mL (≈ 0.151 µM).
As to `CC[C@H](C)[C@H](NC(=O)[C@@H](Cc1ccccc1)NC)C(=O)N[C@@H](CO)C(=O)N[C@H](CCC(N)=O)C(=O)N[C@@H](C(=O)N[C@H](C(=O)N[C@@H](C)C(=O)N[C@H]1C(=O)N[C@@H](C)C(=O)N[C@@H](CCCNC(=N)N)C(=O)N[C@@H]([C@@H](C)CC)C(=O)O[C@H]1C)[C@@H](C)CC)[C@@H](C)CC`, the MIC with Staphylococcus aureus [10] and in the experiment with Staphylococcus aureus [8] was 32 µg/mL (≈ 26 µM) each time.
As to `CC[C@H](C)[C@H](NC(=O)[C@@H](Cc1ccccc1)NC)C(=O)N[C@@H](CCCCN)C(=O)N[C@H](CCC(N)=O)C(=O)N[C@@H](C(=O)N[C@H](C(=O)N[C@@H](CO)C(=O)N[C@H]1C(=O)N[C@@H](C)C(=O)N[C@@H](CCCNC(=N)N)C(=O)N[C@@H]([C@@H](C)CC)C(=O)O[C@H]1C)[C@@H](C)CC)[C@@H](C)CC`, the MIC stood at 0.25 µg/mL (≈ 0.194 µM) with Bacillus subtilis [11] and 4 µg/mL (≈ 3.11 µM) with Staphylococcus aureus [12].
